# PubChem BioAssay AID328 (DTP/NCI, 2004)
# Where “and” joins values, the source holds several entries; their conditions need not be identical. Identical values can stand only once. Toxic doses and inconclusive results are not listed.
# System: BDF1 mice, P388 leukemia ip, median survival T/C
# Experiment: NCI In Vivo Anticancer Drug Screen. Data for tumor model P388 Leukemia (intraperitoneal) in B6D2F1 (BDF1) mice
# Conditions: endpoint: median survival time, higher = longer survival
# How it was run: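 In tumour-bearing mice, survival after compound treatment is set against the vehicle group and given as a quotient.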
# [1] = dose: 6.25 mg/kg/injection, schedule: Q01DX009 (ip), vehicle: Klucel (hydroxypropylcellulose) (HPC)
# [2] = dose: 12.5 mg/kg/injection, schedule: Q01DX009 (ip), vehicle: Klucel (hydroxypropylcellulose) (HPC)
# [3] = dose: 25.0 mg/kg/injection, schedule: Q01DX009 (ip), vehicle: Klucel (hydroxypropylcellulose) (HPC)
# [4] = dose: 100.0 mg/kg/injection, schedule: Q04DX003 (ip), vehicle: saline
# [5] = dose: 100.0 mg/kg/injection, schedule: Q01DX009 (ip), vehicle: Klucel (hydroxypropylcellulose) (HPC)
# [6] = dose: 100.0 mg/kg/injection, schedule: Q04DX003 (ip), vehicle: saline with Tween-80
# [7] = dose: 200.0 mg/kg/injection, schedule: Q04DX003 (ip), vehicle: saline with Tween-80
# [8] = dose: 100.0 mg/kg/injection, schedule: Q04DX003 (ip), vehicle: Klucel (hydroxypropylcellulose) (HPC)
# [9] = dose: 200.0 mg/kg/injection, schedule: Q04DX003 (ip), vehicle: Klucel (hydroxypropylcellulose) (HPC)
smiles,measurement,setting,value
CC(=O)c1cc(CN(CCCl)CCCl)c(O)c(CN(CCCl)CCCl)c1O,T/C,"dose: 0.05 mg/kg/injection, schedule: Q01DX009 (ip), vehicle: Klucel (hydroxypropylcellulose) (HPC)",100 % of control
same,T/C,"dose: 0.1 mg/kg/injection, schedule: Q01DX009 (ip), vehicle: Klucel (hydroxypropylcellulose) (HPC)",120 % of control
same,T/C,"dose: 0.2 mg/kg/injection, schedule: Q01DX009 (ip), vehicle: Klucel (hydroxypropylcellulose) (HPC)",110 % of control
same,T/C,"dose: 0.4 mg/kg/injection, schedule: Q01DX009 (ip), vehicle: Klucel (hydroxypropylcellulose) (HPC)",120 % of control
same,T/C,"dose: 5.5 mg/kg/injection, schedule: Q01DX009 (ip), vehicle: Klucel (hydroxypropylcellulose) (HPC)",162 % of control
same,T/C,[1],118 % of control
same,T/C,"dose: 8.0 mg/kg/injection, schedule: Q01DX009 (ip), vehicle: Klucel (hydroxypropylcellulose) (HPC)",166 % of control
same,T/C,"dose: 8.3 mg/kg/injection, schedule: Q01DX009 (ip), vehicle: Klucel (hydroxypropylcellulose) (HPC)",166 % of control
same,T/C,"dose: 12.0 mg/kg/injection, schedule: Q01DX009 (ip), vehicle: Klucel (hydroxypropylcellulose) (HPC)",183 % of control
same,T/C,[2],183 % of control and 190 % of control
same,T/C,"dose: 18.0 mg/kg/injection, schedule: Q01DX009 (ip), vehicle: Klucel (hydroxypropylcellulose) (HPC)",250 % of control
same,T/C,[3],154 % of control
O=c1[nH]c(=O)n(O)c2nc[nH]c12,T/C,"dose: 25.0 mg/kg/injection, schedule: Q04DX003 (ip), vehicle: saline",100 % of control
same,T/C,"dose: 37.5 mg/kg/injection, schedule: Q01DX001 (ip), vehicle: saline",100 % of control
same,T/C,"dose: 50.0 mg/kg/injection, schedule: Q04DX003 (ip), vehicle: saline",100 % of control
same,T/C,"dose: 75.0 mg/kg/injection, schedule: Q01DX001 (ip), vehicle: saline",109 % of control
same,T/C,"dose: 75.0 mg/kg/injection, schedule: Q01DX009 (ip), vehicle: saline",90 % of control
same,T/C,[4],118 % of control
C1CC[N-]CC1.C1CC[N-]CC1.C1CC[N-]CC1.[Cl][Cr]([Cl])[Cl],T/C,"dose: 50.0 mg/kg/injection, schedule: Q01DX009 (ip), vehicle: Klucel (hydroxypropylcellulose) (HPC)",90 % of control
same,T/C,[5],100 % of control
CCOC(=O)c1[nH]cnc1/N=N/N(C)CCO,T/C,"dose: 14.0 mg/kg/injection, schedule: Q01DX009 (ip), vehicle: saline",104 % of control
same,T/C,"dose: 21.0 mg/kg/injection, schedule: Q01DX009 (ip), vehicle: saline",100 % of control
same,T/C,"dose: 66.0 mg/kg/injection, schedule: Q01DX009 (ip), vehicle: saline",115 % of control
same,T/C,"dose: 264.0 mg/kg/injection, schedule: Q01DX009 (ip), vehicle: saline with Tween-80",113 % of control
same,T/C,"dose: 600.0 mg/kg/injection, schedule: Q01DX009 (ip), vehicle: saline with Tween-80",118 % of control
same,T/C,"dose: 600.0 mg/kg/injection, schedule: Q01DX009 (ip), vehicle: saline",163 % of control
NC(N)=Nc1ccc(C(=O)O)cc1,T/C,"dose: 50.0 mg/kg/injection, schedule: Q04DX003 (ip), vehicle: saline with Tween-80",104 % of control
same,T/C,[6],100 % of control
same,T/C,[7],100 % of control
OC1c2cc(Cl)ccc2-c2c(Cl)cc(Cl)cc21 (stereo not drawn),T/C,"dose: 50.0 mg/kg/injection, schedule: Q01DX009 (ip), vehicle: saline with Tween-80",104 % of control
same,T/C,"dose: 100.0 mg/kg/injection, schedule: Q01DX009 (ip), vehicle: saline with Tween-80",100 % of control
same,T/C,[6],91 % of control
same,T/C,"dose: 200.0 mg/kg/injection, schedule: Q01DX009 (ip), vehicle: saline with Tween-80",108 % of control
same,T/C,[7],100 % of control
Cn1c2nc3ccccc3c-2nc2ccccc21,T/C,"dose: 12.5 mg/kg/injection, schedule: Q04DX003 (ip), vehicle: Klucel (hydroxypropylcellulose) (HPC)",94 % of control
same,T/C,"dose: 25.0 mg/kg/injection, schedule: Q04DX003 (ip), vehicle: Klucel (hydroxypropylcellulose) (HPC)",98 % of control
same,T/C,"dose: 50.0 mg/kg/injection, schedule: Q04DX003 (ip), vehicle: Klucel (hydroxypropylcellulose) (HPC)",103 % of control
same,T/C,[8],101 % of control
same,T/C,[9],116 % of control
CC(C)C(=O)[O][Sn]([c]1ccccc1)([c]1ccccc1)[c]1ccccc1,T/C,"dose: 12.5 mg/kg/injection, schedule: Q01DX009 (ip), vehicle: saline with Tween-80",123 % of control
CCCCCCC(=O)/C=C/c1cccc(Cl)c1,T/C,[4],88 % of control
same,T/C,"dose: 400.0 mg/kg/injection, schedule: Q04DX003 (ip), vehicle: saline",100 % of control
O=S(=O)(CBr)OCCCl,T/C,"dose: 50.0 mg/kg/injection, schedule: Q01DX005 (ip), vehicle: saline with Tween-80",120 % of control
same,T/C,"dose: 100.0 mg/kg/injection, schedule: Q01DX005 (ip), vehicle: saline with Tween-80",121 % of control
same,T/C,"dose: 200.0 mg/kg/injection, schedule: Q01DX005 (ip), vehicle: saline with Tween-80",165 % of control
CCN(CCO)c1ccc(N)cc1C,T/C,"dose: 1.56 mg/kg/injection, schedule: Q01DX009 (ip), vehicle: saline",100 % of control
same,T/C,"dose: 3.13 mg/kg/injection, schedule: Q01DX009 (ip), vehicle: saline",100 % of control
same,T/C,"dose: 6.25 mg/kg/injection, schedule: Q01DX009 (ip), vehicle: saline",90 % of control
O=P1(N(CCCl)CCCl)NC(OOC2CCOP(=O)(N(CCCl)CCCl)N2)CCO1 (stereo not drawn),T/C,"dose: 50.0 mg/kg/injection, schedule: Q01DX001 (ip), vehicle: Klucel (hydroxypropylcellulose) (HPC)",200 % of control
same,T/C,"dose: 100.0 mg/kg/injection, schedule: Q01DX001 (ip), vehicle: Klucel (hydroxypropylcellulose) (HPC)",236 % of control
same,T/C,"dose: 200.0 mg/kg/injection, schedule: Q01DX001 (ip), vehicle: Klucel (hydroxypropylcellulose) (HPC)",272 % of control
same,T/C,"dose: 400.0 mg/kg/injection, schedule: Q01DX001 (ip), vehicle: Klucel (hydroxypropylcellulose) (HPC)",273 % of control
CC(C)N=Cc1ccccc1O.CC(C)N=Cc1ccccc1O.[Ni],T/C,"dose: 6.25 mg/kg/injection, schedule: Q04DX003 (ip), vehicle: saline sonified",105 % of control
same,T/C,"dose: 12.5 mg/kg/injection, schedule: Q04DX003 (ip), vehicle: saline sonified",105 % of control
same,T/C,"dose: 25.0 mg/kg/injection, schedule: Q04DX003 (ip), vehicle: saline sonified",115 % of control
CC(=O)Nc1ccc2c3c(ccc([N+](=O)[O-])c13)CC2,T/C,"dose: 100.0 mg/kg/injection, schedule: Q01DX009 (ip), vehicle: saline",90 % of control
same,T/C,"dose: 200.0 mg/kg/injection, schedule: Q01DX009 (ip), vehicle: saline",95 % of control
O=C(Nc1ccc(C2=NCCN2)cc1)C1CCC(C(=O)Nc2ccc(C3=NCCN3)cc2)CC1 (stereo not drawn),T/C,[6],150 % of control
same,T/C,[7],179 % of control
same,T/C,"dose: 264.0 mg/kg/injection, schedule: Q04DX003 (ip), vehicle: saline with Tween-80",228 % of control and 200 % of control
same,T/C,"dose: 400.0 mg/kg/injection, schedule: Q04DX003 (ip), vehicle: saline with Tween-80",225 % of control and 229 % of control and 240 % of control
same,T/C,"dose: 600.0 mg/kg/injection, schedule: Q04DX003 (ip), vehicle: saline with Tween-80",240 % of control and 245 % of control
c1ccc(CCSc2ncnc3nc[nH]c23)cc1,T/C,"dose: 62.5 mg/kg/injection, schedule: Q01DX010 (ip), vehicle: saline",95 % of control and 104 % of control
same,T/C,"dose: 125.0 mg/kg/injection, schedule: Q01DX010 (ip), vehicle: saline",95 % of control and 100 % of control
same,T/C,"dose: 250.0 mg/kg/injection, schedule: Q01DX010 (ip), vehicle: saline",100 % of control
same,T/C,"dose: 500.0 mg/kg/injection, schedule: Q01DX010 (ip), vehicle: saline",86 % of control and 109 % of control
ClCCN(CCCl)CCOc1ccc(-c2nc3ccccc3[nH]2)cc1,T/C,"dose: 12.5 mg/kg/injection, schedule: Q04DX002 (ip), vehicle: saline",189 % of control
CC(=O)OCC(=O)[C@@]1(O)CC[C@H]2[C@@H]3CCC4=CC(=O)[C@H](C)C[C@]4(C)[C@@]3(F)[C@@H](O)C[C@@]21C,T/C,[1],109 % of control
same,T/C,[2],109 % of control
same,T/C,[3],90 % of control
same,T/C,"dose: 254.0 mg/kg/injection, schedule: Q01DX001 (ip), vehicle: Klucel (hydroxypropylcellulose) (HPC)",100 % of control
same,T/C,"dose: 385.0 mg/kg/injection, schedule: Q01DX001 (ip), vehicle: Klucel (hydroxypropylcellulose) (HPC)",91 % of control
CC(O)c1ccc(-c2ccccc2)cc1 (stereo not drawn),T/C,[5],120 % of control
same,T/C,[8],95 % of control
same,T/C,"dose: 200.0 mg/kg/injection, schedule: Q01DX009 (ip), vehicle: Klucel (hydroxypropylcellulose) (HPC)",105 % of control
same,T/C,[9],100 % of control
same,T/C,"dose: 400.0 mg/kg/injection, schedule: Q01DX009 (ip), vehicle: Klucel (hydroxypropylcellulose) (HPC)",110 % of control
same,T/C,"dose: 400.0 mg/kg/injection, schedule: Q04DX003 (ip), vehicle: Klucel (hydroxypropylcellulose) (HPC)",100 % of control
